Data published in BindingDB's records for doi:10.1002/cbic.201600636 (The University of Sydney, 2017).

Experiments:
Lipoxygenase = Lipoxygenase (Solanum tuberosum, UniProt O49150); assay: Colorimetric 5-LO Assay
Method: A colorimetric 5-LO assay kit (Lipoxygenase Inhibitor Screening Assay Kit) and potato 5-LO isolate were purchased from Cayman Chemicals (Ann Arbor, MI). 5-LO inhibition assay was performed according to the instruction manuals. All samples were dissolved in dimethyl sulfoxide, except for 1 and 2, which were dissolved in the assay buffers provided. All assays were performed in triplicate, and errors were calculated as standard deviation.

Histone deacetylase 1 = Histone deacetylase 1 (Homo sapiens, UniProt Q13547); assay: Fluorometric Activity Assay
Histone deacetylase 1, sequence (Q13547 whole entry): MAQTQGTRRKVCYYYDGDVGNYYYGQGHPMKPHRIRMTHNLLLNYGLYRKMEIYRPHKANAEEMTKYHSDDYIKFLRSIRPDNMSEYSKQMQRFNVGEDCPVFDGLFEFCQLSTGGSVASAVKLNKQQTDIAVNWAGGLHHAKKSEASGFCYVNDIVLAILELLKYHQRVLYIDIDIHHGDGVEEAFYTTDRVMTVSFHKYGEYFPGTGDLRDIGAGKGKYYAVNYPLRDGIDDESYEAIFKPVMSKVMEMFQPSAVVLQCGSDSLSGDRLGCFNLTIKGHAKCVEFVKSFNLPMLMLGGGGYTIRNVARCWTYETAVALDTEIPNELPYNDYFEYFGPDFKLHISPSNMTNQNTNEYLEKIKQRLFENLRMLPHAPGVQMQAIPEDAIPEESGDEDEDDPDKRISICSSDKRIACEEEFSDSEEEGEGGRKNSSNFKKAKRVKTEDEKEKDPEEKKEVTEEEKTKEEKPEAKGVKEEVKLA
Method: A FLUOR DE LYS fluorometric activity assay kit (HDAC source: HeLa cell nuclear extract) and a FLUOR DE LYS HDAC1 fluorometric drug discovery assay kit (HDAC source: human recombinant HDAC1) were purchased from Enzo Life Sciences (Farmingdale, NY). HDAC inhibition assay was performed according to the instruction manuals. All samples were dissolved in dimethyl sulfoxide, except for 1 and 2, which were dissolved in the assay buffers provided. All assays were performed in triplicate, and errors were calculated as standard deviation.

Lipoxygenase, sequence (O49150 whole entry): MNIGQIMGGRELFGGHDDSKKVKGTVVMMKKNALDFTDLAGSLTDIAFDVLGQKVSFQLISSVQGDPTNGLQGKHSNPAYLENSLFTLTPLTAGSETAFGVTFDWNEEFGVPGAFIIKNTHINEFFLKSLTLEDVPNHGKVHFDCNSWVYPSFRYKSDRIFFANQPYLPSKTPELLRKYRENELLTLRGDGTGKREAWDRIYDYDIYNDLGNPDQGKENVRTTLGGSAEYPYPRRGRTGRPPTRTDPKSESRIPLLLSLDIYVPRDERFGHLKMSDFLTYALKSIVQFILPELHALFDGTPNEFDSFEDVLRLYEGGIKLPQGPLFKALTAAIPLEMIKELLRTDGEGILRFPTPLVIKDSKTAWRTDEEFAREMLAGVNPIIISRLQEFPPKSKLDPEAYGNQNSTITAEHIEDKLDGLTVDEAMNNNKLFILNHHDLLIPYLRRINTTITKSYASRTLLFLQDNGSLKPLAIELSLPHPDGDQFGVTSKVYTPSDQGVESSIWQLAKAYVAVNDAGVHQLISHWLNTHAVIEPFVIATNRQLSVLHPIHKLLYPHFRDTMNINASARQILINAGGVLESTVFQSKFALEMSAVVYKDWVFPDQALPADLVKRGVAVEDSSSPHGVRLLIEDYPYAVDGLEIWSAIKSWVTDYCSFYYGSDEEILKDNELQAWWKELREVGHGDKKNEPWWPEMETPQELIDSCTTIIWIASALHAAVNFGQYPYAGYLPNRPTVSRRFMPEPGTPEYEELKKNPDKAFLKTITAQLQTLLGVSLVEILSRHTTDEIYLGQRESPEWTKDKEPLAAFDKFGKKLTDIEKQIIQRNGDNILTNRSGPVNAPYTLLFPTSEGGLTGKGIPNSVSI

Structure (SMILES)	IC50 (Lipoxygenase)	IC50 (Histone deacetylase 1)
CC(=O)N(O)CCCCCNC(=O)CCC(=O)N(O)CCCCCNC(=O)CCC(=O)N(O)CCCCCN1C(=O)c2cccc3cccc(c23)C1=O [BIQD-substituted compound, S1]	–	258 µM
CC(=O)N(O)CCCCCN1C(=O)c2cccc3cccc(c23)C1=O [BIQD-substituted compound, S2]	58.9 µM	172 µM
CC(=O)N(O)C/C=C/c1cccc(Oc2ccccc2)c1 [N-(3-phenoxycinnamyl)acetohydroxamic acid]	17.1 µM	–

Now from value to compound:

IC50 (Lipoxygenase)	IC50 (Histone deacetylase 1)	Structure (SMILES)
212 µM	–	O=C(CCCCCN1C(=O)c2cccc3cccc(c23)C1=O)NO [6-(1,3-Dioxo-1H,3H-benzo[de]isoquinolin-2-yl)-hexanoic acid hydroxyamide]
2340 µM	314 µM	CC(=O)N(O)CCCCCNC(=O)CCC(=O)N(O)CCCCCN1C(=O)c2cccc3cccc(c23)C1=O [BIQD-substituted compound, S5]
